# From patent publication US20120053115A1, “Lantibiotic Carboxyamide Derivatives With Enhanced Antibacterial Activity” (Sentinella Pharmaceuticals, Inc., priority 2008, published 2012)
# Tests used:
# [1] = test system: C. albicans ATCC 90028 (code 145); conditions: 0.02% albumine bovine serum, read after 24 h
# Description: (§1) MICs were performed using the broth microdilution methodology following the NCCLS procedure (NCCLS Document M7-A4 Vol. 17 No. 2 January 1997) in presence of 0.02% albumine bovine serum with inocula of approximately 5×10^5 cfu/mL. The media employed included cation-adjusted Mueller-Hinton (MH) broth (Difco Laboratories, Detroit, Mich., USA) supplemented or not with 30% (v/v) bovine serum. Tests were read after 24 h incubation at 25-37° C.
# [2] = test system: E. faecalisVanA (code 560); conditions: E. faecalis VanA code 560; 0.02% albumine bovine serum; read after 24 h
# Description: as §1
# [3] = test system: E. faecalisVanS (code 559); conditions: E. faecalis VanS code 559; 0.02% albumine bovine serum; read after 24 h
# Description: as §1
# [4] = test system: E. faecium VanA (code 569); conditions: 0.02% albumine bovine serum, read after 24 h
# Description: as §1
# [5] = test system: Enterococcus faecium VanS (code 568); conditions: E. faecium VanS code 568; 0.02% albumine bovine serum; read after 24 h
# Description: as §1
# [6] = test system: Escherichia coli (code 47); conditions: 0.02% albumine bovine serum, read after 24 h
# Description: as §1
# [7] = test system: S. epidermidis ATCC12228 (code 147); conditions: 0.02% albumine bovine serum, read after 24 h
# Description: as §1
# [8] = test system: S. haemolyticus Met-R (code 1729); conditions: 0.02% albumine bovine serum, read after 24 h
# Description: as §1
# [9] = test system: S. haemolyticus Met-S (code 1730); conditions: 0.02% albumine bovine serum, read after 24 h
# Description: as §1
# [10] = test system: S. pyogenes (code 49); conditions: 0.02% albumine bovine serum, read after 24 h
# Description: as §1
# [11] = test system: Staphylococcus aureus VISA (code 3798); conditions: S. aureus VISA code 3798; 0.02% albumine bovine serum; read after 24 h
# Description: as §1
# [12] = test system: Staphylococcus aureus VISA Met-R (code 3797); conditions: S. aureus VISA Met-R code 3797; 0.02% albumine bovine serum; read after 24 h
# Description: as §1
compound,measurement,setting,value
C=C1NC(=O)[C@H](C(C)C)NC(=O)[C@H](NC(=O)/C(=C/C)NC(=O)[C@@H](N)[C@@H](C)CC)CSC[C@@H](C(=O)N[C@H]2C(=O)N3CCC[C@H]3C(=O)NCC(=O)N[C@H](C(=O)N[C@H](C(=O)N[C@@H]3CSC[C@@H]4NC(=O)CNC(=O)[C@@H](CSC[C@@H]5NC(=O)[C@H](Cc6c[nH]cn6)NC(=O)[C@@H](CSC[C@@H](C(=O)NCCCCN(C)C)NC5=O)NC4=O)NC(=O)CNC(=O)CNC(=O)CNC(=O)[C@H](CCC(=O)NCCCCN(C)C)NC3=O)[C@@H](C)O)CS[C@H]2C)NC(=O)[C@H](Cc2c[nH]c3ccccc23)NC1=O [Compound 12],Minimal Inhibitory Concentrations,[1],64 µg/mL
same,Minimal Inhibitory Concentrations,[2],4 µg/mL
same,Minimal Inhibitory Concentrations,[3],8 µg/mL
same,Minimal Inhibitory Concentrations,[4],1 µg/mL
same,Minimal Inhibitory Concentrations,[5],2 µg/mL
same,Minimal Inhibitory Concentrations,[6],>128 µg/mL
same,Minimal Inhibitory Concentrations,[7],1 µg/mL
same,Minimal Inhibitory Concentrations,[8],1 µg/mL
same,Minimal Inhibitory Concentrations,[9],<0.125 µg/mL
same,Minimal Inhibitory Concentrations,[10],0.50 µg/mL
same,Minimal Inhibitory Concentrations,[11],1 µg/mL
same,Minimal Inhibitory Concentrations,[12],2 µg/mL
C=C1NC(=O)[C@H](C(C)C)NC(=O)[C@H](NC(=O)/C(=C/C)NC(=O)[C@@H](N)[C@@H](C)CC)CSC[C@@H](C(=O)N[C@H]2C(=O)N3CCC[C@H]3C(=O)NCC(=O)N[C@H](C(=O)N[C@H](C(=O)N[C@@H]3CSC[C@@H]4NC(=O)CNC(=O)[C@@H](CSC[C@@H]5NC(=O)[C@H](Cc6c[nH]cn6)NC(=O)[C@@H](CSC[C@@H](C(=O)NCCN(C)C)NC5=O)NC4=O)NC(=O)CNC(=O)CNC(=O)CNC(=O)[C@H](CCC(=O)NCCN(C)C)NC3=O)[C@@H](C)O)CS[C@H]2C)NC(=O)[C@H](Cc2c[nH]c3ccccc23)NC1=O [Compound 4],Minimal Inhibitory Concentrations,[1],64 µg/mL
same,Minimal Inhibitory Concentrations,[2],2 µg/mL
same,Minimal Inhibitory Concentrations,[3],4 µg/mL
same,Minimal Inhibitory Concentrations,[4],1 µg/mL
same,Minimal Inhibitory Concentrations,[5],1 µg/mL
same,Minimal Inhibitory Concentrations,[6],>128 µg/mL
same,Minimal Inhibitory Concentrations,[7],2 µg/mL
same,Minimal Inhibitory Concentrations,[8],0.50 µg/mL
same,Minimal Inhibitory Concentrations,[9],<0.125 µg/mL
same,Minimal Inhibitory Concentrations,[10],0.50 µg/mL
same,Minimal Inhibitory Concentrations,[11],0.50 µg/mL
same,Minimal Inhibitory Concentrations,[12],0.50 µg/mL
C=C1NC(=O)[C@H](C(C)C)NC(=O)[C@H](NC(=O)/C(=C/C)NC(=O)[C@@H](N)[C@@H](C)CC)CSC[C@@H](C(=O)N[C@H]2C(=O)N3CCC[C@H]3C(=O)NCC(=O)N[C@H](C(=O)N[C@H](C(=O)N[C@@H]3CSC[C@@H]4NC(=O)CNC(=O)[C@@H](CSC[C@@H]5NC(=O)[C@H](Cc6c[nH]cn6)NC(=O)[C@@H](CSC[C@@H](C(=O)N(C)C)NC5=O)NC4=O)NC(=O)CNC(=O)CNC(=O)CNC(=O)[C@H](CCC(=O)N(C)C)NC3=O)[C@@H](C)O)CS[C@H]2C)NC(=O)[C@H](Cc2c[nH]c3ccccc23)NC1=O [Compound 2],Minimal Inhibitory Concentrations,[1],64 µg/mL
same,Minimal Inhibitory Concentrations,[2],16 µg/mL
same,Minimal Inhibitory Concentrations,[3],16 µg/mL
same,Minimal Inhibitory Concentrations,[4],16 µg/mL
same,Minimal Inhibitory Concentrations,[5],16 µg/mL
same,Minimal Inhibitory Concentrations,[6],>128 µg/mL
same,Minimal Inhibitory Concentrations,[7],8 µg/mL
same,Minimal Inhibitory Concentrations,[8],32 µg/mL
same,Minimal Inhibitory Concentrations,[9],8 µg/mL
same,Minimal Inhibitory Concentrations,[11],4 µg/mL
same,Minimal Inhibitory Concentrations,[12],16 µg/mL
C=C1NC(=O)[C@H](C(C)C)NC(=O)[C@H](NC(=O)/C(=C/C)NC(=O)[C@@H](N)[C@@H](C)CC)CSC[C@@H](C(=O)N[C@H]2C(=O)N3CCC[C@H]3C(=O)NCC(=O)N[C@H](C(=O)N[C@H](C(=O)N[C@@H]3CSC[C@@H]4NC(=O)CNC(=O)[C@@H](CSC[C@@H]5NC(=O)[C@H](Cc6c[nH]cn6)NC(=O)[C@@H](CSC[C@@H](C(=O)NCCCCCCCCCCCC)NC5=O)NC4=O)NC(=O)CNC(=O)CNC(=O)CNC(=O)[C@H](CCC(=O)NCCCCCCCCCCCC)NC3=O)[C@@H](C)O)CS[C@H]2C)NC(=O)[C@H](Cc2c[nH]c3ccccc23)NC1=O [Compound 8],Minimal Inhibitory Concentrations,[1],0.25 µg/mL
same,Minimal Inhibitory Concentrations,[2],1 µg/mL
same,Minimal Inhibitory Concentrations,[3],1 µg/mL
same,Minimal Inhibitory Concentrations,[4],2 µg/mL
same,Minimal Inhibitory Concentrations,[5],2 µg/mL
same,Minimal Inhibitory Concentrations,[6],2 µg/mL
same,Minimal Inhibitory Concentrations,[7],1 µg/mL
same,Minimal Inhibitory Concentrations,[8],1 µg/mL
same,Minimal Inhibitory Concentrations,[9],1 µg/mL
same,Minimal Inhibitory Concentrations,[11],1 µg/mL
same,Minimal Inhibitory Concentrations,[12],2 µg/mL
"C=C1NC(=O)[C@H](C(C)C)NC(=O)[C@H](NC(=O)/C(=C/C)NC(=O)[C@@H](N)[C@@H](C)CC)CSC[C@@H](C(=O)N[C@H]2C(=O)N3CCC[C@H]3C(=O)NCC(=O)N[C@H](C(=O)N[C@H](C(=O)N[C@@H]3CSC[C@@H]4NC(=O)CNC(=O)[C@@H](CSC[C@@H]5NC(=O)[C@H](Cc6c[nH]cn6)NC(=O)[C@@H](CSC[C@@H](C(=O)O)NC5=O)NC4=O)NC(=O)CNC(=O)CNC(=O)CNC(=O)[C@H](CCC(=O)O)NC3=O)[C@@H](C)O)CS[C@H]2C)NC(=O)[C@H](Cc2c[nH]c3ccccc23)NC1=O [Compound 97518, reference compound]",Minimal Inhibitory Concentrations,[1],64 µg/mL
same,Minimal Inhibitory Concentrations,[2],128 µg/mL
same,Minimal Inhibitory Concentrations,[3],128 µg/mL
same,Minimal Inhibitory Concentrations,[4],>128 µg/mL
same,Minimal Inhibitory Concentrations,[5],>128 µg/mL
same,Minimal Inhibitory Concentrations,[6],>128 µg/mL
same,Minimal Inhibitory Concentrations,[7],64 µg/mL
same,Minimal Inhibitory Concentrations,[8],128 µg/mL
same,Minimal Inhibitory Concentrations,[9],128 µg/mL
same,Minimal Inhibitory Concentrations,[10],0.25 µg/mL
same,Minimal Inhibitory Concentrations,[11],>128 µg/mL
same,Minimal Inhibitory Concentrations,[12],>128 µg/mL
C=C1NC(=O)[C@H](C(C)C)NC(=O)[C@H](NC(=O)/C(=C/C)NC(=O)[C@@H](N)[C@@H](C)CC)CSC[C@@H](C(=O)N[C@H]2C(=O)N3CCC[C@H]3C(=O)NCC(=O)N[C@H](C(=O)N[C@H](C(=O)N[C@@H]3CSC[C@@H]4NC(=O)CNC(=O)[C@@H](CSC[C@@H]5NC(=O)[C@H](Cc6c[nH]cn6)NC(=O)[C@@H](CSC[C@@H](C(=O)NCCN)NC5=O)NC4=O)NC(=O)CNC(=O)CNC(=O)CNC(=O)[C@H](CCC(=O)NCCN)NC3=O)[C@@H](C)O)CS[C@H]2C)NC(=O)[C@H](Cc2c[nH]c3ccccc23)NC1=O [Compound 7],Minimal Inhibitory Concentrations,[1],64 µg/mL
same,Minimal Inhibitory Concentrations,[2],2 µg/mL
same,Minimal Inhibitory Concentrations,[3],4 µg/mL
same,Minimal Inhibitory Concentrations,[4],1 µg/mL
same,Minimal Inhibitory Concentrations,[5],1 µg/mL
same,Minimal Inhibitory Concentrations,[6],>128 µg/mL
same,Minimal Inhibitory Concentrations,[7],1 µg/mL
same,Minimal Inhibitory Concentrations,[8],0.25 µg/mL
same,Minimal Inhibitory Concentrations,[9],<0.125 µg/mL
same,Minimal Inhibitory Concentrations,[11],0.50 µg/mL
same,Minimal Inhibitory Concentrations,[12],1 µg/mL
C=C1NC(=O)[C@H](C(C)C)NC(=O)[C@H](NC(=O)/C(=C/C)NC(=O)[C@@H](N)[C@@H](C)CC)CSC[C@@H](C(=O)N[C@H]2C(=O)N3CCC[C@H]3C(=O)NCC(=O)N[C@H](C(=O)N[C@H](C(=O)N[C@@H]3CSC[C@@H]4NC(=O)CNC(=O)[C@@H](CSC[C@@H]5NC(=O)[C@H](Cc6c[nH]cn6)NC(=O)[C@@H](CSC[C@@H](C(=O)Nc6cccc7ccccc67)NC5=O)NC4=O)NC(=O)CNC(=O)CNC(=O)CNC(=O)[C@H](CCC(=O)Nc4cccc5ccccc45)NC3=O)[C@@H](C)O)CS[C@H]2C)NC(=O)[C@H](Cc2c[nH]c3ccccc23)NC1=O [Compound 9],Minimal Inhibitory Concentrations,[1],32 µg/mL
same,Minimal Inhibitory Concentrations,[2],16 µg/mL
same,Minimal Inhibitory Concentrations,[3],16 µg/mL
same,Minimal Inhibitory Concentrations,[4],16 µg/mL
same,Minimal Inhibitory Concentrations,[5],8 µg/mL
same,Minimal Inhibitory Concentrations,[6],>128 µg/mL
same,Minimal Inhibitory Concentrations,[7],16 µg/mL
same,Minimal Inhibitory Concentrations,[8],16 µg/mL
same,Minimal Inhibitory Concentrations,[9],16 µg/mL
same,Minimal Inhibitory Concentrations,[11],32 µg/mL
same,Minimal Inhibitory Concentrations,[12],32 µg/mL
C=C1NC(=O)[C@H](C(C)C)NC(=O)[C@H](NC(=O)/C(=C/C)NC(=O)[C@@H](N)[C@@H](C)CC)CSC[C@@H](C(=O)N[C@H]2C(=O)N3CCC[C@H]3C(=O)NCC(=O)N[C@H](C(=O)N[C@H](C(=O)N[C@@H]3CSC[C@@H]4NC(=O)CNC(=O)[C@@H](CSC[C@@H]5NC(=O)[C@H](Cc6c[nH]cn6)NC(=O)[C@@H](CSC[C@@H](C(=O)NCCOC)NC5=O)NC4=O)NC(=O)CNC(=O)CNC(=O)CNC(=O)[C@H](CCC(=O)NCCOC)NC3=O)[C@@H](C)O)CS[C@H]2C)NC(=O)[C@H](Cc2c[nH]c3ccccc23)NC1=O [Compound 11],Minimal Inhibitory Concentrations,[1],64 µg/mL
same,Minimal Inhibitory Concentrations,[2],16 µg/mL
same,Minimal Inhibitory Concentrations,[3],16 µg/mL
same,Minimal Inhibitory Concentrations,[4],8 µg/mL
same,Minimal Inhibitory Concentrations,[5],16 µg/mL
same,Minimal Inhibitory Concentrations,[6],>128 µg/mL
same,Minimal Inhibitory Concentrations,[7],8 µg/mL
same,Minimal Inhibitory Concentrations,[8],32 µg/mL
same,Minimal Inhibitory Concentrations,[9],4 µg/mL
same,Minimal Inhibitory Concentrations,[11],4 µg/mL
same,Minimal Inhibitory Concentrations,[12],8 µg/mL
